From patent publication US20250195513A1, “DEGRADATION OF IRAK4 BY CONJUGATION OF IRAK4 INHIBITORS WITH E3 LIGASE LIGAND AND METHODS OF USE” (BeiGene, Ltd., priority 2022, published 2025)

Experiments:
IRAK4 [1] = target: T1, IRAK4 (Homo sapiens, UniProt Q9NWZ3); test: IRAK4 Degradation Assay with Human Serum (Karpas299, HTRF/TR-FRET); assay type: cell-based; conditions: Karpas-299 in human serum, 24 hrs treatment; for DC50: read-out: IRAK4 degradtion with human serum assay DC50; for Dmax: read-out: IRAK4 degradtion with human serum assay Dmax (%)
T1 construct: endogenous in cells; host or cells: Karpas299
T1 sequence (Q9NWZ3 1-460): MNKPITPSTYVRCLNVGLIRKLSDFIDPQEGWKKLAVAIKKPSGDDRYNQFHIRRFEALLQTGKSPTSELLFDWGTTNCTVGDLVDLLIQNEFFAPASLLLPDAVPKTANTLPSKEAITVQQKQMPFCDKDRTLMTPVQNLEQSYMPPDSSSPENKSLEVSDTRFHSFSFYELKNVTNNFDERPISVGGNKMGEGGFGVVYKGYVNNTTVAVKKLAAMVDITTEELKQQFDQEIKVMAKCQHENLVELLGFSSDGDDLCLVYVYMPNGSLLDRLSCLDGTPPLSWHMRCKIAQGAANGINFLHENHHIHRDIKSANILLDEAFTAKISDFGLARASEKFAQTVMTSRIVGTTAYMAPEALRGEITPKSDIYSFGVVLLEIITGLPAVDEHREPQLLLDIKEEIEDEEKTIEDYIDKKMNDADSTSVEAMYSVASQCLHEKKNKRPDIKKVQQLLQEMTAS
Summary of the method: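 Karpas299 cells in human AB serum (0.2 million/well) treated with serial compound dilutions for 24 h. After lysis, IRAK4 quantified by HTRF (overnight antibody incubation at room temperature, 665/620 nm read). Degradation percentage fitted to four-parameter curve to give DC50.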

IRAK4 [2] = target: T1, IRAK4; test: IRAK4 Degradation Assay (Karpas299, HTRF/TR-FRET); assay type: cell-based; conditions: Karpas-299 cells; for Dmax: maximum percentage of degradation
Summary of the method: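 Karpas299 cells at 0.2 million per well were exposed to serially diluted compounds for 24 h or 5 h, then lysed. IRAK4 remaining in lysates was quantified by HTRF (665/620 nm) after overnight antibody incubation at room temperature. Percent degradation was fitted to a four-parameter curve to give IC50 (DC50).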

[3] = 24 h treatment, read-out: IRAK4 in Karpas-299 (24 h) Dmax (%)
[4] = 24 h treatment, read-out: IRAK4 in Karpas-299 (24 h) DC50

Structure (SMILES)	DC50 (IRAK4 [1]) [nM]	Dmax (IRAK4 [1]) [%]	Dmax (IRAK4 [2]; [3]) [%]	DC50 (IRAK4 [2]; [4]) [nM]	Dmax (IRAK4 [2]; 5 h treatment, read-out: IRAK4 in Karpas-299 (5 h) Dmax (%)) [%]	DC50 (IRAK4 [2]; 5 h treatment, read-out: IRAK4 in Karpas-299 (5 h) DC50) [nM]
CC(C)(O)c1cc2nn(C34CC(N5CCN(C(=O)C6CN(c7cc(F)c([C@H]8CCC(=O)NC8=O)c(F)c7)C6)CC5)(C3)C4)cc2cc1NC(=O)c1ccc2cc(C#N)cnn12 [Example 157, (R)-3-cyano-N-(2-(3-(4-(1-(4-(2,6-dioxopiperidin-3-yl)-3,5-difluorophenyl)azetidine-3-carbonyl)piperazin-1-yl)bicyclo[1.1.1]pentan-1-yl)-6-(2-hydroxypropan-2-yl)-2H-indazol-5-yl)pyrrolo[1,2-b]pyridazine-7-carboxamide]	21	99	98	0.4	–	–
COC[C@@H]1CN([C@H]2CC[C@H](n3cc4cc(NC(=O)c5ccc6cc(C#N)cnn56)c(C(C)(C)O)cc4n3)CC2)CCN1C(=O)C1CN(c2cc(F)c(N3CCC(=O)NC3=O)c(F)c2)C1 [Example 410, 3-cyano-N-(2-((1S,4r)-4-((S)-4-(1-(4-(2,4-dioxotetrahydropyrimidin-1(2H)-yl)-3,5-difluorophenyl)azetidine-3-carbonyl)-3-(methoxymethyl)piperazin-1-yl)cyclohexyl)-6-(2-hydroxypropan-2-yl)-2H-indazol-5-yl)pyrrolo[1,2-b]pyridazine-7-carboxamide]	18	91	98	1.8	–	–
CC(C)(O)c1cc2nn([C@H]3CC[C@H](N4CCN(CCNc5cc(F)c(C6CCC(=O)NC6=O)c(F)c5)CC4)CC3)cc2cc1NC(=O)c1ccc2cc(C#N)cnn12 (stereo partly drawn) [Example 135, 3-cyano-N-(2-((1r,4r)-4-(4-(2-((4-(2,6-dioxopiperidin-3-yl)-3,5-difluorophenyl)amino)ethyl)piperazin-1-yl)cyclohexyl)-6-(2-hydroxypropan-2-yl)-2H-indazol-5-yl)pyrrolo[1,2-b]pyridazine-7-carboxamide]	7.1	100	98	1.1	93	1.6
C[C@H]1CN(CC2CN(c3cc(F)c([C@H]4CCC(=O)NC4=O)c(F)c3)C2)CCN1[C@H]1CC[C@H](n2cc3cc(NC(=O)c4ccc5cc(C#N)cnn45)c(C(C)(C)O)cc3n2)CC1 [Example 306, 3-cyano-N-(2-((1S,4r)-4-((S)-4-((1-(4-((R)-2,6-dioxopiperidin-3-yl)-3,5-difluorophenyl)azetidin-3-yl)methyl)-2-methylpiperazin-1-yl)cyclohexyl)-6-(2-hydroxypropan-2-yl)-2H-indazol-5-yl)pyrrolo[1,2-b]pyridazine-7-carboxamide]	8.3	100	98	1.3	–	–
COC[C@H]1CN([C@H]2CC[C@H](n3cc4cc(NC(=O)c5ccc6cc(C#N)cnn56)c(C(C)(C)O)cc4n3)CC2)CCN1C(=O)[C@@H]1CCN(c2cc(F)c([C@H]3CCC(=O)NC3=O)c(F)c2)C1 [Example 313, 3-cyano-N-(2-((1R,4r)-4-((R)-4-((R)-1-(4-((R)-2,6-dioxopiperidin-3-yl)-3,5-difluorophenyl)pyrrolidine-3-carbonyl)-3-(methoxymethyl)piperazin-1-yl)cyclohexyl)-6-(2-hydroxypropan-2-yl)-2H-indazol-5-yl)pyrrolo[1,2-b]pyridazine-7-carboxamide]	24	96	98	0.3	–	–
COc1cc2nn([C@H]3CC[C@H](N4CCN(C5CCN(c6cc(F)c([C@H]7CCC(=O)NC7=O)c(F)c6)CC5)CC4)CC3)cc2cc1NC(=O)c1ccc2cc(C#N)cnn12 [Example 338, 3-cyano-N-(2-((1r,4r)-4-(4-(1-(4-((R)-2,6-dioxopiperidin-3-yl)-3,5-difluorophenyl)piperidin-4-yl)piperazin-1-yl)cyclohexyl)-6-methoxy-2H-indazol-5-yl)pyrrolo[1,2-b]pyridazine-7-carboxamide]	13	92	95	1.1	–	–
CC(C)(O)c1cc2nn([C@H]3CC[C@H](N4CCN(C5CN(c6cc(F)c([C@H]7CCC(=O)NC7=O)c(F)c6)C5)CC4=O)CC3)cc2cc1NC(=O)c1ccc2cc(C#N)cnn12 [Example 335, 3-cyano-N-(2-((1R,4r)-4-(4-(1-(4-((R)-2,6-dioxopiperidin-3-yl)-3,5-difluorophenyl)azetidin-3-yl)-2-oxopiperazin-1-yl)cyclohexyl)-6-(2-hydroxypropan-2-yl)-2H-indazol-5-yl)pyrrolo[1,2-b]pyridazine-7-carboxamide]	64	99	93	0.6	–	–
CC(C)(O)c1cc2nn([C@H]3CC[C@H](N4CCN(CCCc5cc(F)c([C@H]6CCC(=O)NC6=O)c(F)c5)CC4)CC3)cc2cc1NC(=O)c1ccc2cc(C#N)cnn12 [Example 357, 3-cyano-N-(2-((1R,4r)-4-(4-(3-(4-((R)-2,6-dioxopiperidin-3-yl)-3,5-difluorophenyl)propyl)piperazin-1-yl)cyclohexyl)-6-(2-hydroxypropan-2-yl)-2H-indazol-5-yl)pyrrolo[1,2-b]pyridazine-7-carboxamide]	12	97	97	1.1	–	–
CC(C)(O)c1cc2nn(C34CC(N5CCN(CC6CCN(c7ccc8c(c7)CN(C7CCC(=O)NC7=O)C8=O)CC6)CC5)(C3)C4)cc2cc1NC(=O)c1ccc2cc(C#N)cnn12 (stereo not drawn) [Example 401, 3-cyano-N-(2-(3-(4-((1-(2-(2,6-dioxopiperidin-3-yl)-1-oxoisoindolin-5-yl)piperidin-4-yl)methyl)piperazin-1-yl)bicyclo[1.1.1]pentan-1-yl)-6-(2-hydroxypropan-2-yl)-2H-indazol-5-yl)pyrrolo[1,2-b]pyridazine-7-carboxamide]	7.4	94	94	1.2	–	–
COC[C@H]1CN([C@H]2CC[C@H](n3cc4cc(NC(=O)c5ccc6cc(C#N)cnn56)c(C(C)(C)O)cc4n3)CC2)CCN1CC1CCN(c2ccc3c(c2)CN(C2CCC(=O)NC2=O)C3=O)CC1 (stereo partly drawn) [Example 402, 3-cyano-N-(2-((1R,4r)-4-((3R)-4-((1-(2-(2,6-dioxopiperidin-3-yl)-1-oxoisoindolin-5-yl)piperidin-4-yl)methyl)-3-(methoxymethyl)piperazin-1-yl)cyclohexyl)-6-(2-hydroxypropan-2-yl)-2H-indazol-5-yl)pyrrolo[1,2-b]pyridazine-7-carboxamide]	5.5	87	95	0.9	–	–
Cc1nc(C2CCC(=O)NC2=O)ccc1N1CCC(N2CCN(C[C@H]3CC[C@H](n4cc5cc(NC(=O)c6ccc7cc(C#N)cnn67)c(C(C)(C)O)cc5n4)CC3)CC2)CC1 (stereo partly drawn) [Example 420, 3-cyano-N-(2-((1r,4r)-4-((4-(1-(6-(2,6-dioxopiperidin-3-yl)-2-methylpyridin-3-yl)piperidin-4-yl)piperazin-1-yl)methyl)cyclohexyl)-6-(2-hydroxypropan-2-yl)-2H-indazol-5-yl)pyrrolo[1,2-b]pyridazine-7-carboxamide]	17	96	97	2.8	–	–
COC[C@@H]1CN(C2CCN(c3ccc(C4CCC(=O)NC4=O)nc3C)CC2)CCN1[C@H]1CC[C@H](n2cc3cc(NC(=O)c4ccc5cc(C#N)cnn45)c(C(C)(C)O)cc3n2)CC1 (stereo partly drawn) [Example 423, 3-cyano-N-(2-((1S,4r)-4-((2S)-4-(1-(6-(2,6-dioxopiperidin-3-yl)-2-methylpyridin-3-yl)piperidin-4-yl)-2-(methoxymethyl)piperazin-1-yl)cyclohexyl)-6-(2-hydroxypropan-2-yl)-2H-indazol-5-yl)pyrrolo[1,2-b]pyridazine-7-carboxamide]	3	96	98	1.1	–	–
COC[C@H]1CN([C@H]2CC[C@H](n3cc4cc(NC(=O)c5ccc6cc(C#N)cnn56)c(C(C)(C)O)cc4n3)CC2)CCN1C1CN(c2cc(F)c([C@H]3CCC(=O)NC3=O)c(F)c2)C1 [Example 318, 3-cyano-N-(2-((1R,4r)-4-((R)-4-(1-(4-((R)-2,6-dioxopiperidin-3-yl)-3,5-difluorophenyl)azetidin-3-yl)-3-(methoxymethyl)piperazin-1-yl)cyclohexyl)-6-(2-hydroxypropan-2-yl)-2H-indazol-5-yl)pyrrolo[1,2-b]pyridazine-7-carboxamide]	39	95	91	1.1	–	–
